Measured values: patent US11085050B2, “Elite event EE-GH7 and methods and kits for identifying such event in biological samples” (BASF AGRICULTURAL SOLUTIONS SEED, US LLC, priority 2016, dated 2021)

Legend:
plants comprising EE-GH7 = assay: Field tolerance of plants comprising EE-GH7 to IFT, glyphosate and combinations; type: in vivo, cotton (Gossypium hirsutum)
Description: Tolerance of plants comprising EE-GH7 to IFT, to glyphosate and to combinations thereof, was tested at different locations in the field. […] Currently available data appear to indicate a performance which is at least equal to, or better than the performance of plants comprising EE-GH7 over plants comprising the hppd and epsps chimeric genes as described in WO2013/026740.

[1] = tested on: commercial cotton cultivars comprising EE-GH7; assay: Herbicide tolerance after introgression of EE-GH7 into commercial cotton cultivars; type: in vivo, cotton (Gossypium hirsutum); settings: EE-GH7 introgressed by repeated back-crossing into commercial cultivars
From the text: This confirms the status of event EE-GH7 as an elite event.

| SMILES | Tolerance of plants comprising EE-GH7 to the herbicide (plants comprising EE-GH7; applied post emergence) | Glyphosate tolerance of plants comprising EE-GH7 compared with elite glyphosate tolerant event EE-GH3 (plants comprising EE-GH7; versus EE-GH3 of WO2007/017186) | Expression of the transgene as determined by herbicide tolerance [1] | Tolerance of plants comprising EE-GH7 to the herbicide (plants comprising EE-GH7; different locations, IFT alone, in particular applied before emergence) |
| --- | --- | --- | --- | --- |
| O=C(O)CNCP(=O)(O)O [glyphosate] | good tolerance | equal to or better than | meets commercially acceptable levels | – |
| CS(=O)(=O)c1cc(C(F)(F)F)ccc1C(=O)c1cnoc1C1CC1 [IFT, (5-cyclopropyl-4-isoxazolyl)[2-(methylsulfonyl)-4-(trifluoromethyl)phenyl]methanone] | – | – | meets commercially acceptable levels | good tolerance |
